“And” between values parts separate entries of the source, which are not always exact repeats. Equal entries are not always repeated.
Tested on: human embryonic stem cell line H9
Experiment: Cytokine array analysis of cell lysates and conditioned media
Format: cell-based
Set-up: key to BMP-4 expression / BMP-6 expression / EGF expression / FGF-6 expression / Fractalkine expression / GCP-2 expression / IL-3 expression / IL-4 expression / IL-6 expression / M-CSF expression / MIG expression / Amphiregulin expression: cytokine array signal, normalized and background-subtracted
Method: The effect that Wnt-3a treatment has on cytokine expression was analyzed using a protein array. Cells of the human embryonic stem cell line H9 were cultured according to the methods described in Example 15. At passage 54, cells were differentiated in the presence of 100 ng/ml ActivinA+/−10 ng/ml Wnt3a for 2 days in 0.5% FBS DMEM/F12. Cells were subsequently cultured for an additional three days in 100 ng/mlActivin A and 2% FBS DMEM/F12. At the end of the 5th day, CXCR4 expression was determined by FACS for each treatment group.
Cell lysates were prepared from cells of each treatment group, with a mammalian cell lysis kit (Sigma-Aldrich, MO). Conditioned media from each treatment group was collected and concentrated. Cytokine array analysis was completed using Cytokine Array panels provided by RayBiotech, GA (http://www.raybiotech.com/). Table VII lists cytokine, growth factor, and receptor expression following normalization of the data and background subtraction. For each panel, positive and negative controls are also included. Th data shown are two independent samples per cell treatment group (1,2).

In the case of Wnt-3a, the 1L-1beta expression (Cell conditioned media) is reported as 316.59 and 278.30, the 1L-1ra expression (Cell conditioned media) is reported as 354.23 and 581.75 and the Acrp30 expression (Cell conditioned media) is reported as 2,795.71 and 2,302.99. The AgRP expression (Cell conditioned media) was 651.26 and 482.21, the Amphiregulin expression (Cell conditioned media) was 619.07 and 782.60 and the Angiogenin expression (Cell conditioned media) was 57,442.48 and 54,969.04. For the same substance, the Angiopoietin-2 expression (Cell conditioned media) was 65,959.24 and 71,664.21, the AxI expression (Cell conditioned media) was 610.40 and 748.34 and the BDNF expression (Cell conditioned media) was 770.08 and 715.86. For the same substance, the BLC expression (Cell conditioned media) was 337.12 and 249.80, the BMP-6 expression (Cell conditioned media) was 985.70 and 670.60 and the “CK beta 8-1 expression” value (Cell conditioned media) was 42.78 and 75.44. The CNTF expression (Cell conditioned media) was 787.19 and 541.51, the EGF expression (Cell conditioned media) was 23,331.57 and 22,768.53 and the Eotaxin-2 expression (Cell conditioned media) was 2,156.21 and 1,445.14. For the same substance, the Eotaxin-3 expression (Cell conditioned media) was 2,140.81 and 1,480.35, the FGF-6 expression (Cell conditioned media) was 3,283.94 and 2,519.78 and the “Flt-3 Ligand expression” value (Cell conditioned media) was 511.67 and 792.98. For the same substance, the Fractalkine expression (Cell conditioned media) was 359.37 and 367.15, the GCP-2 expression (Cell conditioned media) was 451.78 and 362.12 and the GDNF expression (Cell conditioned media) was 443.22 and 509.66. For the same substance, the GM-CSF expression (Cell conditioned media) was 1,808.82 and 1,446.82, the I-309 expression (Cell conditioned media) was 318.30 and 288.36 and the IFN-gamma expression (Cell conditioned media) was 1,238.97 and 1,435.08. The IGF-I expression (Cell conditioned media) was 254.98 and 187.77, the IGFBP-1 expression (Cell conditioned media) was 227.60 and 155.91 and the IGFBP-2 expression (Cell conditioned media) was 42,215.53 and 43,934.33. For the same substance, the IGFBP-4 expression (Cell conditioned media) was 18,988.34 and 13,380.14, the IL-1alpha expression (Cell conditioned media) was 3,999.26 and 3,545.79 and the IL-2 expression (Cell conditioned media) was 758.10 and 881.84. For the same substance, the IL-3 expression (Cell conditioned media) was 11,345.78 and 12,174.73, the IL-4 expression (Cell conditioned media) was 804.30 and 673.95 and the IL-5 expression (Cell conditioned media) was 2,120.27 and 1,713.38. For the same substance, the IL-6 expression (Cell conditioned media) was 9,774.82 and 9,991.93, the IL-10 expression (Cell conditioned media) was 1,625.71 and 1,129.96 and the IL-13 expression (Cell conditioned media) was 2,522.42 and 1,807.27. For the same substance, the IL-15 expression (Cell conditioned media) was 2,495.04 and 1,981.62, the IL-16 expression (Cell conditioned media) was 436.38 and 405.71 and the LIGHT expression (Cell conditioned media) was 1,346.78 and 1,108.17. For the same substance, the Leptin expression (Cell conditioned media) was 7,238.71 and 4,886.99, the M-CSF expression (Cell conditioned media) was 740.98 and 684.01 and the MCP-1 expression (Cell conditioned media) was 2,015.89 and 1,567.53. The MCP-2 expression (Cell conditioned media) was 694.78 and 694.07, the MCP-3 expression (Cell conditioned media) was 701.62 and 583.42 and the MCP-4 expression (Cell conditioned media) was 231.02 and 276.62. The MIP-1-delta expression (Cell conditioned media) was 474.02 and 291.71, the MIP-3-alpha expression (Cell conditioned media) was 208.78 and 184.41 and the NAP-2 expression (Cell conditioned media) was 371.35 and 343.68. The NT-3 expression (Cell conditioned media) was 571.57 and 427.51, the PARC expression (Cell conditioned media) was 474.02 and 363.80 and the PDGF-BB expression (Cell conditioned media) was 2,635.37 and 2,005.09. For the same substance, the RANTES expression (Cell conditioned media) was 682.80 and 855.01, the SCF expression (Cell conditioned media) was 1,394.69 and 2,155.98 and the SDF-1 expression (Cell conditioned media) was 326.85 and 616.95. The “TGF-beta 1 expression” value (Cell conditioned media) was 1,827.65 and 1,849.18, the “TGF-beta 3 expression” value (Cell conditioned media) was 294.34 and 343.68 and the TNF-alpha expression (Cell conditioned media) was 2,609.70 and 2,167.71. The TNF-beta expression (Cell conditioned media) was 1,701.01 and 1,637.94, the bFGF expression (Cell conditioned media) was 1,226.99 and 1,241.09 and the 1L-1beta expression (Cell lysate) was 352.05 and 312.08. The 1L-1ra expression (Cell lysate) was 302.68 and 198.48, the Acrp30 expression (Cell lysate) was 601.61 and 690.66 and the AgRP expression (Cell lysate) was 77.82 and 89.00. For the same substance, the Angiogenin expression (Cell lysate) was 619.40 and 750.85, the AxI expression (Cell lysate) was 88.59 and 139.03 and the BDNF expression (Cell lysate) was 763.51 and 951.45. The BLC expression (Cell lysate) was 742.24 and 476.36, the BMP-4 expression (Cell lysate) was 348.44 and 304.48 and the BMP-6 expression (Cell lysate) was 571.23 and 641.05. For the same substance, the “CK beta 8-1 expression” value (Cell lysate) was 22.48 and 21.54, the CNTF expression (Cell lysate) was 1,382.51 and 1,060.82 and the EGF expression (Cell lysate) was 742.24 and 984.39. The Eotaxin expression (Cell lysate) was 301.87 and 253.80, the Eotaxin-3 expression (Cell lysate) was 934.12 and 847.56 and the “Flt-3 Ligand expression” value (Cell lysate) was 857.45 and 795.19. The Fractalkine expression (Cell lysate) was 792.02 and 456.51, the GCP-2 expression (Cell lysate) was 593.71 and 538.86 and the GDNF expression (Cell lysate) was 436.75 and 444.68. For the same substance, the GM-CSF expression (Cell lysate) was 1,343.17 and 1,161.75, the I-309 expression (Cell lysate) was 708.52 and 743.25 and the IFN-gamma expression (Cell lysate) was 1,202.67 and 1,037.60. For the same substance, the IGFBP-1 expression (Cell lysate) was 59.41 and 85.73, the IGFBP-2 expression (Cell lysate) was 2,671.90 and 2,414.72 and the IGFBP-4 expression (Cell lysate) was 4,459.85 and 4,173.19. For the same substance, the IL-1alpha expression (Cell lysate) was 1,612.93 and 1,421.89, the IL-3 expression (Cell lysate) was 2,119.94 and 1,497.48 and the IL-4 expression (Cell lysate) was 625.42 and 638.94. The IL-5 expression (Cell lysate) was 1,245.23 and 1,167.24, the IL-10 expression (Cell lysate) was 1,222.75 and 1,096.30 and the IL-13 expression (Cell lysate) was 1,486.89 and 1,407.96. The IL-15 expression (Cell lysate) was 1,677.16 and 1,601.79, the IL-16 expression (Cell lysate) was 651.11 and 668.50 and the Leptin expression (Cell lysate) was 1,234.39 and 1,091.65. For the same substance, the M-CSF expression (Cell lysate) was 852.63 and 867.83, the MCP-1 expression (Cell lysate) was 1,022.03 and 1,076.03 and the MCP-3 expression (Cell lysate) was 1,184.61 and 1,255.50. For the same substance, the MCP-4 expression (Cell lysate) was 1,380.51 and 1,606.86, the MDC expression (Cell lysate) was 269.36 and 280.41 and the MIG expression (Cell lysate) was 1,113.16 and 1,137.26. The MIP-1-delta expression (Cell lysate) was 491.75 and 322.22, the MIP-3-alpha expression (Cell lysate) was 1,602.09 and 1,399.93 and the NT-3 expression (Cell lysate) was 316.73 and 275.76. For the same substance, the PARC expression (Cell lysate) was 352.85 and 353.04, the PDGF-BB expression (Cell lysate) was 517.84 and 597.56 and the RANTES expression (Cell lysate) was 724.98 and 637.25. For the same substance, the SCF expression (Cell lysate) was 1,152.50 and 1,021.13, the TARC expression (Cell lysate) was 372.93 and 343.33 and the “TGF-beta 1 expression” value (Cell lysate) was 1,426.67 and 1,240.30. For the same substance, the TNF-alpha expression (Cell lysate) was 2,851.74 and 1,285.91, the TNF-beta expression (Cell lysate) was 1,049.33 and 1,026.62 and the bFGF expression (Cell lysate) was 11,722.95 and 21,398.52. For the same substance, the “IGFBP-1, TGFbeta-1 and TGFbeta-3 in cell lysates” value (Wnt3a treated vs Activin A only) was “upregulated” and the “Angiogenin, IGFBP-1 and EGF in cell conditioned media” value (Wnt3 treated vs Activin A only) was “Noticeable upregulation”.

Source: patent US20100255580A1, “Differentiation of Human Embryonic Stem Cells” (LIFESCCAN, INC., priority 2007, published 2010)
